Assay results from EP2808342B1, “Medium for in-vitro toxicity testing and in-vitro toxicity test method using the same” (priority 2013, dated 2014).

Assays:
[1] = test system: N2a cells; experiment: Toxicity test (CCK-8 cell proliferation assay) on 3D cell clusters grown on REP-coated plates; assay type: cell-based; conditions: Cell Cluster of Ex. 2 (A), REP-plate
Description: REP was dissolved at a concentration of 10 µM in phosphate buffered saline (PBS), and the 10 µM REP solution was aliquoted in an amount of 50 µl per well into 96-well polystyrene plates and incubated for 1 hr at 37°C. The supernatant was removed from each well to leave REP to adhere to the plates.
(§1) N2a cells ([…], purchased from the ATCC, USA) were seeded at a density of 5x10^5 cells/well into the culture plates coated with REP prepared in Example 1 (hereinafter referred to as "REP-plate"). The cell culture medium was Eagle's Minimum Essential Medium (EMEM) supplemented with 2 mM glutamine, 1 mM sodium pyruvate, 1.5 g/l sodium bicarbonate, 100 units/ml penicillin and 100 µg/ml streptomycin. The REP-plates where N2a cells were seeded were incubated for 3 days at 37°C in a 5% CO2 atmosphere with humidity of 95% to afford the formation of 3D cell clusters.
(§2) To the cell clusters obtained in Example 2 or the cells obtained in Comparative Example 1 was added a solution of PFOA (perfluorooctanoic acid, Mw 414.1 g/mol, Sigma-Aldrich, 171468-5G, 96%) with a concentration of 5 µM, 20 µM, 50 µM, 100 µM, 200 µM, 300 µM, 400 µM, 500 µM, 600 µM, 700 µM, 800 µM, 900 µM, 1,000 µM or 2,000 µM. After 3, 24 or 48 hrs of incubation, the cells were assayed for proliferation using a cell counting kit-8 (CCK-8, Dojindo, Japan).
(§3) The PFOA solution was made by dissolving PFOA in dimethyl sulfoxide (DMSO, Sigma-Aldrich, USA) at a final concentration of 5 µM, 20 µM, 50 µM, 100 µM, 200 µM, 300 µM, 400 µM, 500 µM, 600 µM, 700 µM, 800 µM, 900 µM, 1,000 µM or 2,000 µM.
(§4) For the cell proliferation assay, absorbance (OD) at 450 nm was measured on an amicroplate reader (Multiskan, Thermo USA). From the measurements, inhibitory concentration (IC50) values were calculated using TOXCALC 5.0 (Tidepool Scientific Software, USA).
(§5) A solution of PFOS (perfluorooctane sulfonates; Mw 538.2, Sigma-Aldrich, 77282-10G, ≥98.0 (T)) with a concentration of 5 µM, 20 µM, 50 µM, 100 µM, 200 µM, 300 µM, 400 µM, 500 µM, 600 µM, 700 µM, 800 µM, 900 µM, 1,000 µM or 2, 000 µM was added to the cell clusters obtained in Example 2 and to the cells obtained in Comparative Example 1. After 3, 24 or 48 hrs of incubation, the cells were assayed for proliferation using a cell counting kit-8 (CCK-8, Dojindo, Japan).
(§6) The PFOS solution was made by dissolving PFOS in dimethyl sulfoxide (DMSO, Sigma-Aldrich, USA) at a final concentration of 5 µM, 20 µM, 50 µM, 100 µM, 200 µM, 300 µM, 400 µM, 500 µM, 600 µM, 700 µM, 800 µM, 900 µM, 1,000 µM or 2,000 µM.

[2] = test system: N2a cells; experiment: Toxicity test (CCK-8 cell proliferation assay) on cells cultured on plates not coated with REP; assay type: cell-based; conditions: Cultured Cell of C. Ex. 1 (B)
Description: as §1
Cells were cultured in the same manner as in Example 2, with the exception that the plates were not coated with REP.
as §2, §3, §4, §5, §6

[3] = Mus musculus, N2a, 3 hrs incubation
[4] = Mus musculus, N2a, 24 hrs incubation
[5] = Mus musculus, N2a, 48 hrs incubation

SMILES	IC50 [1, 3] [µM]	IC50 [1, 4] [µM]	IC50 [1, 5] [µM]	IC50 [2, 3] [µM]	IC50 [2, 4] [µM]	IC50 [2, 5] [µM]	IC50 ([1]; 3 hrs incubation) [µM]	IC50 ([1]; 24 hrs incubation) [µM]	IC50 ([1]; 48 hrs incubation) [µM]	IC50 ([2]; 3 hrs incubation) [µM]	IC50 ([2]; 24 hrs incubation) [µM]	IC50 ([2]; 48 hrs incubation) [µM]
O=C(O)C(F)(F)C(F)(F)C(F)(F)C(F)(F)C(F)(F)C(F)(F)C(F)(F)F [PFOA, perfluorooctanoic acid]	632	495	423	511	389	310						
O=S(=O)(O)C(F)(F)C(F)(F)C(F)(F)C(F)(F)C(F)(F)C(F)(F)C(F)(F)C(F)(F)F [PFOS, perfluorooctane sulfonates]							471	355	300	196	219	220
